Holding throughout (assay type): cell-based
Assay [1] has as its system human breast cancer cell line MX-1. Description: Inhibition of cell proliferation (GI50, CellTiter-Glo) in MX-1 cells. The conditions noted are these: MX1 cells, 48 h, dose for 50% inhibition of cell proliferation. The method, then:
(§1) Human breast cancer cell lines T-47D, MX-1 and MDAMB435, human colon cancer cell line HT29, and human lung cancer cell line H1299 were grown and harvested as in Example 26. An aliquot of […] of cells (4.4×10^4 cells/mL) was added to a well of a 96-well microtiter plate containing 5 μL of a 10% DMSO in RPMI-1640 media solution containing 10 nM to 100 μM of N-(3,4-methylenedioxybenzyl)-6-phenylthieno[3,2-d]pyrimidin-4-amine (1 nM to 10 μM final). An aliquot of 45 μL of cells was added to a well of a 96-well microtiter plate containing 5 μL of a 10% DMSO in RPMI-1640 media solution without compound as the control sample for maximal cell proliferation (LMax). The samples were mixed by agitation and then incubated at 37° C. for 48 h in a 5% CO2-95% humidity incubator. After incubation, the samples were removed from the incubator and 25 μL of CellTiter-Glo™ reagent (Promega) was added. The samples were mixed by agitation and incubated at room temperature for 10-15 min. Plates were then read using a luminescent plate reader (Model SPECTRAfluor Plus, Tecan) to give Ltest values.
(§2) Baseline for GI50 (dose for 50% inhibition of cell proliferation) of initial cell numbers was determined by adding an aliquot of 45 μL of cells or 45 μL of media, respectively, to wells of a 96-well microtiter plate containing 5 μL of a 10% DMSO in RPMI-1640 media solution. The samples were mixed by agitation and then incubated at 37° C. for 0.5 h in a 5% CO2-95% humidity incubator. After incubation, the samples were removed from the incubator and 25 μL of CellTiter-Glo™ reagent (Promega) was added. The samples were mixed by agitation and incubated at 37° C. for 10-15 min at room temperature in a 5% CO2-95% humidity incubator. Fluorescence was read as above, (Lstart) defining luminescence for initial cell number used as baseline in GI50 determinations.
(§3) GI50 (dose for 50% inhibition of cell proliferation) is the concentration where [(LTest−Lstart)/(LMax−Lstart)]=0.5.

Assay [2] deals with human breast cancer cell line T-47D. The assay can be described thus: Inhibition of cell proliferation (GI50, CellTiter-Glo) in T-47D cells. The conditions noted are these: T47D cells, 48 h, dose for 50% inhibition of cell proliferation. As to the method:
as §1, §2, §3
For orientation: Cellular ATP, detected with luciferase, serves as a proxy for viable cell number.

Assay [3] concerns human lung cancer cell line H1299. Description: Inhibition of cell proliferation (GI50, CellTiter-Glo) in H1299 cells. The conditions noted are these: NCI-H1299, 48 h, dose for 50% inhibition of cell proliferation. The method, then:
as §1, §2, §3

Assay [4] concerns human breast cancer cell line T-47D. The assay can be described thus: Caspase cascade activation assay in T-47D cells. Conditions: T47D, 24 h or 48 h incubation, read-out: Caspase Activation Potency EC50 T-47D. The method, then: (§4) Human breast cancer cell lines T-47D and human lung cancer cell line H1299 were grown according to media component mixtures designated by American Type Culture Collection+10% FCS (Invitrogen Corporation), in a 5% CO2-95% humidity incubator at 37° C. T-47D and H1299 cells were maintained at a cell density between 50 and 80% confluency at a cell density of 0.1 to 0.6×10^6 cells/mL. Cells were harvested at 600×g and resuspended at 0.65×10^6 cells/mL into appropriate media+10% FCS. An aliquot of 22.5 μL of cells was added to a well of a 384-well microtiter plate containing 2.5 μL of a 10% DMSO in RPMI-1640 media solution containing 0.16 to 100 μM of N-(3,4-methylenedioxybenzyl)-6-phenylthieno[3,2-d]pyrimidin-4-amine or other test compound (0.016 to 10 μM final). An aliquot of 22.5 μL of cells was added to a well of a 384-well microtiter plate containing 2.5 μL of a 10% DMSO in RPMI-1640 media solution without test compound as the control sample. The samples were mixed by agitation and then incubated at 37° C. for 24 h or 48 h in a 5% CO2-95% humidity incubator. After incubation, the samples were removed from the incubator and 25 μL of a solution containing 14 μM of N-(Ac-DEVD)-N′-ethoxycarbonyl-R110 (SEQ ID No.:1) fluorogenic substrate (Cytovia, Inc.; WO99/18856), 20% sucrose (Sigma), 20 mM DTT (Sigma), 200 mM NaCl (Sigma), 40 mM Na PIPES buffer pH 7.2 (Sigma), and 500 μg/mL lysolecithin (Calbiochem) was added. The samples were mixed by agitation and incubated at room temperature. Using a fluorescent plate reader (Model SPECTRAfluor Plus, Tecan), an initial reading (T=0) was made approximately 1-2 min after addition of the substrate solution, employing excitation at 485 nm and emission at 530 nm, to determine the background fluorescence of the control sample. After the 3 h incubation, the samples were read for fluorescence as above (T=3 h).
(§5) The Relative Florescence Unit values (RFU) were used to calculate the sample readings as follows: RFU(T=3h)−Control RFU(T=0)=Net RFU(T=3h)
(§6) The activity of caspase cascade activation was determined by the ratio of the net RFU value for N-(3,4-methylenedioxybenzyl)-6-phenylthieno[3,2-d]pyrimidin-4-amine (Example A) or other test compound to that of control samples. The EC50 (nM) was determined by a sigmoidal dose-response calculation (Prism 3.0, GraphPad Software Inc.).

Assay [5] deals with human colon cancer cell line HT29. Description: Inhibition of cell proliferation (GI50, CellTiter-Glo) in HT29 cells. Conditions: HT-29, 48 h, dose for 50% inhibition of cell proliferation. As to the method: as §1, §2, §3
Assay [6] deals with human lung cancer cell line H1299. The assay can be described thus: Caspase cascade activation assay in H1299 cells. Conditions: NCI-H1299, 24 h or 48 h incubation, read-out: Caspase Activation Potency EC50 H1299. The method, then: as §4, §5, §6
In assay [7] the test system is human breast cancer cell line MDAMB435. The assay can be described thus: Inhibition of cell proliferation (GI50, CellTiter-Glo) in MDAMB435 cells. The conditions noted are these: MDA-MB-435, 48 h, dose for 50% inhibition of cell proliferation. As to the method:
as §1, §2, §3

Assay [8] has as its system human B cell lymphoblastoid cell line Ramos. Description: Caspase cascade activation assay in Ramos cells. The conditions noted are these: 48 h assay, read-out: Caspase Activation Potency EC50 Ramos.
Assay [9] deals with human colon carcinoma cell line HCT116. The assay can be described thus: Caspase cascade activation assay in HCT116 cells. The conditions noted are these: HCT-116, 48 h assay, read-out: Caspase Activation Potency EC50 HCT116.
Assay [10] relates to human Burkitt's lymphoma cell line Namalwa. The assay can be described thus: Caspase cascade activation assay in Namalwa cells. Conditions: Burkitts lymphoma cell, 48 h assay, read-out: Caspase Activation Potency EC50 Namalwa.
For assay [11], the system named is human hepatocellular carcinoma cell line SNU398. The assay can be described thus: Caspase cascade activation assay in SNU398 cells. Conditions: SNU-398, 48 h assay, read-out: Caspase Activation Potency EC50 SNU398.
The test system of assay [12] is human lymphoma cell line Raji. The assay can be described thus: Caspase cascade activation assay in Raji cells. The conditions noted are these: 48 h assay, read-out: Caspase Activation Potency EC50 Raji.

By GI50 is commonly meant the concentration giving 50% growth inhibition. Read a low GI50 as greater sensitivity of the cells. What is called EC50 is the concentration giving half of the maximal effect.

SMILES strings stand for the structures.

On to `Ic1cc2ncnc(NCc3ccc4c(c3)OCO4)c2s1` [Example 3, N-(3,4-Methylenedioxybenzyl)-6-iodo-thieno[3,2-d]pyrimidin-4-amine], for which the GI50 in assay [1] came to 2500 nM; in assay [2], 2070 nM; in [3], 1040 nM; in [5], 2500 nM; in assay [7] it was 997 nM. Besides, the EC50 in assay [4] came out at 1560 nM; in assay [6] it was 5090 nM.
For the compound `c1ccc(-c2cc3ncnc(NCc4ccc5c(c4)OCO5)c3s2)cc1` [Example A, N-(3,4-methylenedioxybenzyl)-6-phenylthieno[3,2-d]pyrimidin-4-amine], the concentration for 50% growth inhibition (GI50) in [1] came out at 600 nM; in assay [2] it was 600 nM; in [3] it was 600 nM; in [5] it was 600 nM; in assay [7], 129 nM. Besides, the EC50 was determined as 624 nM in [8]; 903 nM in assay [4]; 737 nM in [9]; 633 nM in [10]; 738 nM in assay [11]; 506 nM in [6]. The EC50 in assay [12] amounted to 1130 nM.
As to `c1cncc(-c2cc3ncnc(NCc4ccc5c(c4)OCO5)c3s2)c1` [Example 5, N-(3,4-Methylenedioxybenzyl)-6-(pyridin-3-yl)thieno[3,2-d]pyrimidin-4-amine], the GI50 in assay [1] worked out at 173 nM; in assay [2], 1290 nM; in assay [3] it was 1810 nM; in assay [5], 5240 nM; in assay [7] it was 155 nM. For the same compound, the EC50 in assay [8] is 1830 nM; in assay [4] it was 563 nM; in assay [9], 2530 nM; in [10], 1350 nM; in [11] it was 1450 nM; in assay [6] it was 1600 nM. The EC50 in [12] is 2760 nM.

The values are drawn from patent US20070099941A1, “N-arylalkyl-thienopyrimidin-4-amines and analogs as activators of caspases and inducers of apoptosis and the use thereof” (Cytovia, Inc., priority 2005, published 2007).
